Source: patent US12533353B2, “Methods of treatment of cancer comprising CDC7 inhibitors” (CARNA BIOSCIENCES, INC., priority 2018, dated 2026)
“And” between values parts separate entries of the source, which are not always exact repeats. Identical values can stand only once.

Legend:
[1] = Absolute oral bioavailability; settings: monkey, in vivo, free base suspension, read-out: absolute oral bioavailability (% F)
[2] = Red blood cell partitioning; type: in vitro ADME; settings: any species matrix
[3] = test system: HT-29 colorectal adenocarcinoma cells; assay: Gemcitabine growth inhibition alone or with SRA141, 96 hours; type: cell-based, human; settings: SRA141 at 1.1 μM or 3.3 μM
Procedure: To confirm the efficacy of a Cdc7 inhibitor in combination with the replicative stress-inducing anti-neoplastic agent gemcitabine, human HT-29 colorectal adenocarcinoma cells were treated with increasing concentrations of gemcitabine (from 0.037 to 1 μM) for 96 hours.

AM7440 = assay: AML PDX ex vivo 3D culture, 5 days; type: cell-based
Procedure: (§1) The activity of SRA141 was investigated in in vitro and ex vivo three-dimensional (3D) cultures prepared from three AML cell lines (EOL-1, Molm-16 and MV-4-11) and three AML PDX models (AM5512, AM7440 and AM7577), respectively. Tumor cultures were treated with SRA141 (0.08 to 33 μM) for 5 days.

AM7577 = assay: AML PDX ex vivo 3D culture, 5 days; type: cell-based
Procedure: as §1

AM5512 = assay: AML PDX ex vivo 3D culture, 5 days; type: cell-based
Procedure: as §1

MV-4-11 tumor xenografts = assay: Rat xenograft model of AML (MV-4-11), SRA141 monotherapy; type: in vivo; set-up: complete regressions (tumor volume <13.5 mm3 for 3 consecutive measurements): unit not given here; settings: for tumor growth inhibition (TGI): 5 days of 7-day cycle, 4 weeks, Day 42; for median tumor volume: in mm³ (unit assumed)
Procedure: The efficacy of a Cdc7 inhibitor (compound SRA141) as a monotherapy was tested in a rat xenograft model of Acute Myelogenous Leukemia (AML) (FIG. 2). Female rnu/rnu rats were inoculated subcutaneously with 1×10^7 MV-4-11 human acute myelogenous leukemia cells. MV-4-11 cells were injected in a totally volume of 0.1 mL PBS in 1:1 Matrigel®. Rats began SRA141 treatment when tumors reached an average size of 300-400 mm^3. Rats bearing MV-4-11 tumor xenografts were orally administered (i) vehicle control (0.5% CMC-Na/1% Poloxamer 188) or (ii) SRA141 at 75 mg/kg BID for 5 consecutive days of a 7-day cycle for 4 weeks or (iii) SRA141 at 150 mg/kg QD for 5 consecutive days of a 7-day cycle for 4 weeks (n=10 per treatment group). Tumor volume measurements were taken biweekly and body weight measurements were taken biweekly to day 15, then daily to end of study. Tumor growth inhibition was calculated on Day 42, the final day of the study.

MV-4-11 xenograft tumors = assay: MV-4-11 acute myeloid leukemia xenograft, SRA141 monotherapy; type: in vivo, mouse; settings: for average tumor volume at day 21: 3 weeks; for tumor growth inhibition: Day 21
Procedure: The efficacy of a Cdc7 inhibitor (compound I-D, also named SRA141) alone as a monotherapy was tested in xenografts using an acute myeloid leukemia cell line, MV-4-11. Female BALB/c mice bearing MV-4-11 xenograft tumors were administered SRA141 at various doses. 60 female BALB/C mice aged 5-6 weeks were subcutaneously inoculated MV-4-11 tumor cells. Mice were inoculated with 5.0×10^6 cells (mixed with Matrigel® at a ratio of 1:1) per mouse. 32 mice were selected and randomized into 4 groups and were orally administered (i) vehicle control (0.2 M HCl/0.5% MC400) or (ii) SRA141 at 30 or 60 mg/kg BID for 3 weeks or (iii) SRA141 120 mg/kg QD for 3 weeks (n=8 per treatment group). The body weights of mice were recorded once per week before grouping and mice conditions were recorded daily during the treatment. After 21 days of dosing, mice were sacrificed for tumor weight measurement. Tumor growth inhibition was calculated on Day 21, the final day of the study.

[4] = test system: CDK8 (STAT1, Ser727); CDK7 and 9 (RNA pol II, Ser2); LATS2 (YAP1, Ser127); MCL-1; assay: Cellular substrates of putative off-target kinases in Colo-205 cells; type: cell-based, human
Procedure: Colo-205 cells were treated with SRA141 (at concentrations between 0.033 and 3.3 μM) for 8 to 24 hours with subsequent assessment of the phosphorylation status of the downstream targets for Cdc7 (MCM2, Ser40/41 and Ser53), and the putative off-target kinases CDK8 (STAT1, Ser727); CDK7 and 9 (RNA pol II, Ser2); LATS2 (YAP1, Ser127) as well as the levels of MCL-1, known to be indirectly controlled by CDK9 (Gregory, 2015).

OATP1B1 = OATP1B1 (Homo sapiens, UniProt Q9Y6L6); assay: In vitro transporter inhibition; type: in vitro ADME
OATP1B3 = OATP1B3 (Homo sapiens, UniProt Q9NPD5); assay: In vitro transporter inhibition; type: in vitro ADME
MV-4-11 cancer cells = assay: MV-4-11 human leukemia systemic survival study; type: in vivo, mouse
Procedure: Female NOD SCID mice intravenously inoculated with MV-4-11 cancer cells were administered (i) vehicle control (0.1 M HCl/0.5% MC400, oral) or (ii) SRA141 initially at 60 mg/kg BID for 5 consecutive days of a 7-day cycle from Days 0 to 21, and then due to significant body weight loss, at 40 mg/kg BID on the same schedule from Days 22 to 73 (n=10 per treatment group). Survival was the only efficacy endpoint in this study, given the systemic nature of the cancer model.

[5] = test system: normal human dermal fibroblast cells (NHDF); assay: Sub-G1 fraction by propidium iodide flow cytometry; type: cell-based; settings: 0.03 to 33.3 μM, 48 h incubation
Procedure: The differential cytotoxic activity of SRA141 in Colo-205 colon cancer cells versus normal human dermal fibroblast cells (NHDF) was assessed at drug concentrations ranging from 0.03 to 33.3 μM (48 h incubation). Following treatment, cells labelled with propidium iodide were analyzed by flow cytometry to determine the percentage of dying cells found in sub-G1 fractions as a consequence of apoptosis-mediated DNA fragmentation. […] In contrast, fewer than 10% of the normal cells were apoptotic as determined by sub-G1 fraction, consistent with published reports showing minimal cytotoxicity of non-transformed cells following Cdc7 inhibition (Montagnoli, 2004). Thus, these findings support a potential therapeutic index for SRA141 between tumor and non-transformed tissues.

[6] = 60 then 40 mg/kg BID, 5 days of 7-day cycle

OATP1B1, sequence (Q9Y6L6 whole entry): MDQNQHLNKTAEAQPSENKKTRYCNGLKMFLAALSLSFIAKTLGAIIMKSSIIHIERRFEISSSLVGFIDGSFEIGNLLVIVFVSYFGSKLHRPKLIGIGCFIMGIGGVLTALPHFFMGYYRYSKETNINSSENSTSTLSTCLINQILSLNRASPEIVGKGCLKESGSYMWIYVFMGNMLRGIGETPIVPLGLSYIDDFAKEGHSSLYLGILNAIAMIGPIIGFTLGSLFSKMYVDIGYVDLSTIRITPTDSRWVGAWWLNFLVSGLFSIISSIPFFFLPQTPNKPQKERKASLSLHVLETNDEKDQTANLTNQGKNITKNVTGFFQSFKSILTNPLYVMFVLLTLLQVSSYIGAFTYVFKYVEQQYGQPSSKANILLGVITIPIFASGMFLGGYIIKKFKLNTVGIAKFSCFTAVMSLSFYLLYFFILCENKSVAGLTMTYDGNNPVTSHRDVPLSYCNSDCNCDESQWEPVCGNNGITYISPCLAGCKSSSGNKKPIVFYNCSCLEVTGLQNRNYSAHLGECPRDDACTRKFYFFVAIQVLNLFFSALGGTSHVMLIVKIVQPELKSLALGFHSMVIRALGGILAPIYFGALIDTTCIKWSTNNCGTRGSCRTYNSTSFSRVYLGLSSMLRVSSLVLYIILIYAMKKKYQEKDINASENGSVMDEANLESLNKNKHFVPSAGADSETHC
OATP1B3, sequence (Q9NPD5 whole entry): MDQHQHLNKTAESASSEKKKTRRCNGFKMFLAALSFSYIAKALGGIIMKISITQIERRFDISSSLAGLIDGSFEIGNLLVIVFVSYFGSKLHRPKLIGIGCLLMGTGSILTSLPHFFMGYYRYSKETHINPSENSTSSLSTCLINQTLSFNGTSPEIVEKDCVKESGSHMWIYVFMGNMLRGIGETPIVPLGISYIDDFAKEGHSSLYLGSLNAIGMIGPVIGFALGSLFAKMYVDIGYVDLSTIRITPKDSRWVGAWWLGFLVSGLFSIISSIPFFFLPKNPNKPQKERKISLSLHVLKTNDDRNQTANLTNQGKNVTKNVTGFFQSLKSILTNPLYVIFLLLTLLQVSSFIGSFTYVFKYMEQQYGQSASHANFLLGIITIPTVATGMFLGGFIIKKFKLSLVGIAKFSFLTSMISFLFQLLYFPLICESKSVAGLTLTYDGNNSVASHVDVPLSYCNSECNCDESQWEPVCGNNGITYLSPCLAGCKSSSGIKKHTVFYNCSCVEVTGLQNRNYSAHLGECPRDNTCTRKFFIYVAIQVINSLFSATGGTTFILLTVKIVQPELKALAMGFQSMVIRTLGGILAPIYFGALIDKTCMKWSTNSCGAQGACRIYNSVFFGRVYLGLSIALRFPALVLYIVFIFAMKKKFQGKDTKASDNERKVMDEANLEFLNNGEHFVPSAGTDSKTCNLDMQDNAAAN

Question: For `CCOC(=O)C1=C(NN2CCN(CC(F)(F)F)CC2)O/C(=C\c2c[nH]c3ncccc23)C1=O` [SRA141], which bioavailability [1] is on record?
Answer: 1 to 33%

Question: What about the “partition into red blood cells” value [2] of the same compound?
Answer: did not preferentially partition into red blood cells

Question: And the “effect of SRA141 addition on gemcitabine inhibition” value [3]?
Answer: substantially reduced the inhibitory effects of gemcitabine

Question: What about the IC50 (AM7440) of the same compound?
Answer: 1610 nM

Question: What about the IC50 (AM7577) of the same compound?
Answer: 150 nM

Question: What about the IC50 (AM5512) of the same compound?
Answer: 3200 nM and 3160 nM

Question: What about the complete regressions (tumor volume <13.5 mm3 for 3 consecutive measurements) (MV-4-11 tumor xenografts; 75 mg/kg BID) of the same compound?
Answer: 1

Question: And the “partial regressions (tumor volume <50% of initial volume for 3 consecutive measurements)” value (MV-4-11 tumor xenografts; 75 mg/kg BID)?
Answer: 3

Question: What about the “tumor growth inhibition (TGI)” value (MV-4-11 tumor xenografts; 75 mg/kg BID) of the same compound?
Answer: 86.1%

Question: And the median tumor volume (MV-4-11 tumor xenografts; 75 mg/kg group (n=8))?
Answer: 1838

Question: And the partial regressions (MV-4-11 tumor xenografts; 150 mg/kg QD)?
Answer: 2

Question: And the “tumor growth inhibition (TGI)” value (MV-4-11 tumor xenografts; 150 mg/kg QD)?
Answer: 86.7%

Question: What about the median tumor volume (MV-4-11 tumor xenografts; 150 mg/kg group (n=9)) of the same compound?
Answer: 1764

Question: And the tolerability (MV-4-11 tumor xenografts; all treatments)?
Answer: well tolerated with no significant body weight loss

Question: What about the “average relative body weight change (RCBW) at day 21” value (“average relative body weight change” for short) (MV-4-11 xenograft tumors; 30 mg/kg BID) of the same compound?
Answer: 16.39%

Question: What about the “average tumor volume at day 21” value (MV-4-11 xenograft tumors; 30 mg/kg BID oral) of the same compound?
Answer: 655.68 mm^3

Question: What about the tumor growth inhibition (MV-4-11 xenograft tumors; 30 mg/kg BID) of the same compound?
Answer: 59%

Question: And the “average relative body weight change” value (MV-4-11 xenograft tumors; 60 mg/kg BID)?
Answer: 3.18%

Question: And the “average tumor volume at day 21” value (MV-4-11 xenograft tumors; 60 mg/kg BID oral)?
Answer: 300.77 mm^3

Question: What about the tumor growth inhibition (MV-4-11 xenograft tumors; 60 mg/kg BID) of the same compound?
Answer: 81%

Question: And the “average relative body weight change” value (MV-4-11 xenograft tumors; 120 mg/kg QD)?
Answer: 8.47%

Question: And the “average tumor volume at day 21” value (MV-4-11 xenograft tumors; 120 mg/kg QD oral)?
Answer: 530.83 mm^3

Question: What about the tumor growth inhibition (MV-4-11 xenograft tumors; 120 mg/kg QD) of the same compound?
Answer: 67%

Question: And the tolerability (MV-4-11 xenograft tumors; all treatments)?
Answer: tolerated with no significant body weight loss

Question: What about the “inhibition of STAT1, YAP1 and MCL-1” value ([4]; 3.3 μM) of the same compound?
Answer: Minimal inhibition

Question: What about the “phosphorylation status (or protein level of MCL-1) of off-target substrates” value ([4]; up to 1 μM) of the same compound?
Answer: no significant change

Question: And the inhibition at 10 µM (OATP1B1)?
Answer: > 50%

Question: What about the inhibition at 10 µM (OATP1B3) of the same compound?
Answer: > 50%

Question: And the “median survival, all animals including premature decedents” value (MV-4-11 cancer cells; [6])?
Answer: 35 days

Question: What about the “median survival, premature decedents censored” value (MV-4-11 cancer cells; [6]) of the same compound?
Answer: greater than 99 days

Question: And the “mice with body weight loss greater than 20%” value (MV-4-11 cancer cells; SRA141-treated mice)?
Answer: One of ten

Question: What about the “percentage of apoptotic cells by sub-G1 fraction” value [5] of the same compound?
Answer: < 10%
